{
  "source": "patent US20100222360A1",
  "about": "“Treatment of Malignant Peripheral Nerve Sheath Tumors” (priority 2008, published 2010)",
  "tested_on": "MPNST cell line, YST-1",
  "test": "Proliferation of the MPNST cell line YST-1",
  "format": "cell-based",
  "data": [
    {"smiles": "O=C1c2ccccc2-c2n[nH]c3cccc1c23", "note": "[SP600125]", "values": [
      {"measurement": "effect on the suppression of cell proliferation effected by Imatinib", "setting": "SP600125 in combination with Imatinib, YST-1 cells", "value": "reinforces the suppression of cell proliferation"},
      {"measurement": "suppression of proliferation of the MPNST cell line YST-1", "setting": "single agent, concentration-dependent manner", "value": "suppresses the proliferation"}
    ]}
  ]
}
